Experimental data published in the NIST ThermoML archive (doi:10.1016/j.jct.2012.12.001).
Several values for one entry are separate records, joined by “and”; a condition that tells them apart may be missing. Equal values may be shown once. ± gives the expanded uncertainty stated by the source.

Assay: heat capacity at constant pressure per volume; xn = mol fraction of the nth substance listed
Details: 101 kPa, Liquid, DSC, x2 = 0.695

CCCCCCCCCCCCCCCCC [heptadecane] + N#Cc1ccccc1
Details	heat capacity
298.05 K	1856100 ± 20000 J/K/m3
298.14 K	1849900 ± 20000 J/K/m3
298.24 K	1857600 ± 20000 J/K/m3
298.34 K	1869500 ± 20000 J/K/m3
298.44 K	1867300 ± 20000 J/K/m3 and 1868100 ± 20000 J/K/m3
298.54 K	1868700 ± 20000 J/K/m3
298.63 K	1857900 ± 20000 J/K/m3
298.73 K	1860800 ± 20000 J/K/m3
298.83 K	1865800 ± 20000 J/K/m3
298.93 K	1874400 ± 20000 J/K/m3
299.02 K	1881300 ± 20000 J/K/m3
299.12 K	1876400 ± 20000 J/K/m3
299.22 K	1870300 ± 20000 J/K/m3
299.32 K	1856400 ± 20000 J/K/m3 and 1858200 ± 20000 J/K/m3
299.42 K	1872800 ± 20000 J/K/m3
299.52 K	1876300 ± 20000 J/K/m3
299.61 K	1873800 ± 20000 J/K/m3
299.71 K	1875400 ± 20000 J/K/m3
299.81 K	1870400 ± 20000 J/K/m3
299.91 K	1865300 ± 20000 J/K/m3
300 K	1870300 ± 20000 J/K/m3
300.1 K	1879700 ± 20000 J/K/m3
300.2 K	1876100 ± 20000 J/K/m3
300.3 K	1884400 ± 20000 J/K/m3
300.4 K	1880100 ± 20000 J/K/m3
300.49 K	1877500 ± 20000 J/K/m3
300.59 K	1873500 ± 20000 J/K/m3
300.69 K	1871300 ± 20000 J/K/m3
300.79 K	1885700 ± 20000 J/K/m3 and 1882900 ± 20000 J/K/m3
300.89 K	1883300 ± 20000 J/K/m3
300.98 K	1885200 ± 20000 J/K/m3
301.08 K	1880800 ± 20000 J/K/m3
301.18 K	1881200 ± 20000 J/K/m3
301.28 K	1861100 ± 20000 J/K/m3
301.37 K	1877300 ± 20000 J/K/m3
301.47 K	1892900 ± 20000 J/K/m3
301.57 K	1896800 ± 20000 J/K/m3
301.67 K	1885900 ± 20000 J/K/m3 and 1887800 ± 20000 J/K/m3
301.77 K	1883300 ± 20000 J/K/m3
301.87 K	1884700 ± 20000 J/K/m3
301.96 K	1888400 ± 20000 J/K/m3
302.06 K	1899800 ± 20000 J/K/m3
302.16 K	1898500 ± 20000 J/K/m3
302.26 K	1888500 ± 20000 J/K/m3
302.35 K	1894400 ± 20000 J/K/m3
302.45 K	1890300 ± 20000 J/K/m3
302.55 K	1891200 ± 20000 J/K/m3
302.65 K	1899800 ± 20000 J/K/m3 and 1900100 ± 20000 J/K/m3
302.75 K	1891400 ± 20000 J/K/m3
302.85 K	1889600 ± 20000 J/K/m3
302.95 K	1885100 ± 20000 J/K/m3
303.15 K	1906400 ± 20000 J/K/m3
303.35 K	1896200 ± 20000 J/K/m3
303.45 K	1894500 ± 20000 J/K/m3
303.55 K	1902400 ± 20000 J/K/m3
303.65 K	1898100 ± 20000 J/K/m3
303.75 K	1898100 ± 20000 J/K/m3
303.85 K	1893900 ± 20000 J/K/m3
304.05 K	1908600 ± 20000 J/K/m3
304.15 K	1904800 ± 20000 J/K/m3
304.25 K	1897700 ± 20000 J/K/m3 and 1899000 ± 20000 J/K/m3
304.35 K	1888500 ± 20000 J/K/m3 and 1889600 ± 20000 J/K/m3
304.45 K	1900600 ± 20000 J/K/m3
304.55 K	1901500 ± 20000 J/K/m3
304.65 K	1903900 ± 20000 J/K/m3
304.75 K	1894400 ± 20000 J/K/m3
304.85 K	1881800 ± 20000 J/K/m3
304.95 K	1915800 ± 20000 J/K/m3
305.05 K	1912200 ± 20000 J/K/m3
305.15 K	1901900 ± 20000 J/K/m3
305.25 K	1924700 ± 20000 J/K/m3
305.35 K	1907800 ± 20000 J/K/m3
305.45 K	1925500 ± 20000 J/K/m3
305.55 K	1943100 ± 20000 J/K/m3
305.65 K	1963900 ± 20000 J/K/m3
305.75 K	1942400 ± 20000 J/K/m3
305.85 K	1924200 ± 20000 J/K/m3
305.95 K	1983400 ± 20000 J/K/m3
306.05 K	1910400 ± 20000 J/K/m3
306.15 K	2011200 ± 20000 J/K/m3
306.25 K	1898300 ± 20000 J/K/m3
306.35 K	2003200 ± 20000 J/K/m3
306.45 K	1935800 ± 20000 J/K/m3
306.55 K	2021100 ± 20000 J/K/m3
306.65 K	1945600 ± 20000 J/K/m3
306.75 K	2006800 ± 20000 J/K/m3
306.85 K	1978000 ± 20000 J/K/m3
307.05 K	2038400 ± 22000 J/K/m3
307.15 K	2126900 ± 28000 J/K/m3
307.25 K	1846500 ± 38000 J/K/m3
307.35 K	1804900 ± 21000 J/K/m3
307.45 K	1791700 ± 20000 J/K/m3
307.55 K	1787300 ± 20000 J/K/m3
307.65 K	1779800 ± 20000 J/K/m3
307.75 K	1775700 ± 20000 J/K/m3
307.85 K	1767300 ± 20000 J/K/m3
307.95 K	1764000 ± 20000 J/K/m3
308.05 K	1758800 ± 20000 J/K/m3
308.15 K	1759200 ± 20000 J/K/m3
308.23 K	1750200 ± 20000 J/K/m3
308.35 K	1756500 ± 20000 J/K/m3
308.45 K	1756400 ± 20000 J/K/m3
308.55 K	1753500 ± 20000 J/K/m3
308.65 K	1748300 ± 20000 J/K/m3
308.75 K	1746500 ± 20000 J/K/m3
308.85 K	1745200 ± 20000 J/K/m3
308.95 K	1748100 ± 20000 J/K/m3
309.05 K	1747000 ± 20000 J/K/m3
309.14 K	1747900 ± 20000 J/K/m3
309.25 K	1743700 ± 20000 J/K/m3
309.35 K	1742200 ± 20000 J/K/m3
309.45 K	1738100 ± 20000 J/K/m3
309.55 K	1735200 ± 20000 J/K/m3
309.65 K	1738100 ± 20000 J/K/m3
309.75 K	1736500 ± 20000 J/K/m3
309.85 K	1737600 ± 20000 J/K/m3
309.95 K	1740400 ± 20000 J/K/m3
310.05 K	1736900 ± 20000 J/K/m3
310.15 K	1731900 ± 20000 J/K/m3
310.25 K	1735000 ± 20000 J/K/m3
310.35 K	1732200 ± 20000 J/K/m3
310.45 K	1727800 ± 20000 J/K/m3
310.55 K	1733700 ± 20000 J/K/m3
310.65 K	1733500 ± 20000 J/K/m3
310.75 K	1728600 ± 20000 J/K/m3
310.85 K	1733600 ± 20000 J/K/m3
310.95 K	1730900 ± 20000 J/K/m3
311 K	1732600 ± 20000 J/K/m3
311.1 K	1732200 ± 20000 J/K/m3
311.2 K	1728000 ± 20000 J/K/m3
311.3 K	1725400 ± 20000 J/K/m3
311.4 K	1724600 ± 20000 J/K/m3
311.5 K	1725800 ± 20000 J/K/m3
311.6 K	1729500 ± 20000 J/K/m3
311.7 K	1732300 ± 20000 J/K/m3
311.8 K	1728700 ± 20000 J/K/m3
311.9 K	1728100 ± 20000 J/K/m3
312 K	1725500 ± 20000 J/K/m3
312.1 K	1723400 ± 20000 J/K/m3
312.2 K	1722200 ± 20000 J/K/m3
312.3 K	1721300 ± 20000 J/K/m3
312.4 K	1724000 ± 20000 J/K/m3
312.5 K	1727600 ± 20000 J/K/m3
312.6 K	1725700 ± 20000 J/K/m3
312.7 K	1727300 ± 20000 J/K/m3
312.8 K	1722600 ± 20000 J/K/m3
312.9 K	1722100 ± 20000 J/K/m3
313 K	1720300 ± 20000 J/K/m3
313.1 K	1719600 ± 20000 J/K/m3
313.2 K	1723400 ± 20000 J/K/m3
313.3 K	1724400 ± 20000 J/K/m3
313.4 K	1725500 ± 20000 J/K/m3
313.5 K	1720500 ± 20000 J/K/m3
313.6 K	1717000 ± 20000 J/K/m3
313.7 K	1718300 ± 20000 J/K/m3
313.8 K	1719300 ± 20000 J/K/m3
313.9 K	1720600 ± 20000 J/K/m3
314 K	1725600 ± 20000 J/K/m3
314.1 K	1722200 ± 20000 J/K/m3
314.2 K	1723200 ± 20000 J/K/m3
314.3 K	1718000 ± 20000 J/K/m3
314.4 K	1717600 ± 20000 J/K/m3
314.5 K	1721100 ± 20000 J/K/m3
314.6 K	1727600 ± 20000 J/K/m3
314.7 K	1722500 ± 20000 J/K/m3
314.8 K	1716700 ± 20000 J/K/m3
314.9 K	1717900 ± 20000 J/K/m3
315 K	1715800 ± 20000 J/K/m3
315.1 K	1719700 ± 20000 J/K/m3
315.2 K	1722400 ± 20000 J/K/m3
315.3 K	1721800 ± 20000 J/K/m3
315.4 K	1717200 ± 20000 J/K/m3
315.5 K	1714900 ± 20000 J/K/m3
315.6 K	1718500 ± 20000 J/K/m3
315.7 K	1724700 ± 20000 J/K/m3
315.8 K	1719600 ± 20000 J/K/m3
315.9 K	1715500 ± 20000 J/K/m3
316 K	1715800 ± 20000 J/K/m3
316.1 K	1715600 ± 20000 J/K/m3
316.2 K	1721400 ± 20000 J/K/m3
316.3 K	1718600 ± 20000 J/K/m3
316.4 K	1718400 ± 20000 J/K/m3
316.5 K	1717700 ± 20000 J/K/m3
316.6 K	1724000 ± 20000 J/K/m3
316.7 K	1724400 ± 20000 J/K/m3
316.8 K	1719200 ± 20000 J/K/m3
317.16 K	1722200 ± 20000 J/K/m3
317.2 K	1722100 ± 20000 J/K/m3
317.31 K	1721500 ± 20000 J/K/m3
317.4 K	1721700 ± 20000 J/K/m3
317.5 K	1722100 ± 20000 J/K/m3
317.6 K	1721900 ± 20000 J/K/m3
317.7 K	1721900 ± 20000 J/K/m3
317.8 K	1721800 ± 20000 J/K/m3
317.9 K	1721500 ± 20000 J/K/m3
318 K	1721300 ± 20000 J/K/m3
318.1 K	1721300 ± 20000 J/K/m3
318.2 K	1721200 ± 20000 J/K/m3
318.3 K	1721100 ± 20000 J/K/m3
318.41 K	1721000 ± 20000 J/K/m3
318.5 K	1721100 ± 20000 J/K/m3
318.6 K	1721300 ± 20000 J/K/m3
318.7 K	1721400 ± 20000 J/K/m3
318.8 K	1721400 ± 20000 J/K/m3
318.9 K	1721100 ± 20000 J/K/m3
